Measurements as given in patent US20110263610A1, “COMPOUNDS AND COMPOSITIONS AS ITPKB INHIBITORS” (IRM LLC, priority 2008, published 2011).
Like-named read-outs stand apart in the source and are kept apart here.

Target: T1, ITPKb (Mus musculus, UniProt B2RXC2)
T1 construct: murine ITPKb residues 640-942; MGSDKIHHHHHH (His6 tag from MH4 plasmid) (N); made in house; host or cells: Escherichia coli HK100
T1 sequence (B2RXC2 640-942): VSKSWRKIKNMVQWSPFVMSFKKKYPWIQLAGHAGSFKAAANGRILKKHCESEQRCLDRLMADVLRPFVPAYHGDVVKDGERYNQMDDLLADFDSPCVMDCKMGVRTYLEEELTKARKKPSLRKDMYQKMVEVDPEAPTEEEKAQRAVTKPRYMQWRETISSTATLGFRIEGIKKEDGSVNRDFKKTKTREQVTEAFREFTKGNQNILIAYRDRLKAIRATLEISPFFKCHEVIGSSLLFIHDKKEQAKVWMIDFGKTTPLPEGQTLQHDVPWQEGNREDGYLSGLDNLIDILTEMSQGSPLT
Test: Biochemical measurement of ITPKb activity (Kinase-Glo ATP depletion assay); inhibiting the phosphorylation of IP3 to IP4
Design: species or system murine
Method: Compounds of the present invention are assayed to measure their capacity to inhibit ITPKb according to the following assays.
The DNA sequence encoding murine ITPKb residues 640-942 is amplified from a full-length construct in mammalian expression vector pKDNZ by PCR. The 3′-primer incorporates a stop codon and an overhanging PacI site. The product is digested with Pad before being ligated into the MH4 plasmid which has been prepared by digestion with PmlI and PacI. Cloning into the MH4 plasmid adds the sequence MGSDKIHHHHHH to the N-terminus of the translated region. Mutant enzymes are made by site-directed mutagenesis using the Stratagene Quikchange kit.
ITPKb is expressed in the HK100 strain of Escherichia coli. Typically, a 4 L batch of cells is grown in LB with […] ampicillin to 0.5 A600 at 30 degrees C., before induction with 0.02% L-arabinose for 6 hours. Cells are harvested by centrifugation, and pellets are resuspended in 50 mL of 50 mM Tris (pH 8), 100 mM NaCl, 1 mM TCEP, and 0.1 mg/mL lysozyme, with 1 Complete protease inhibitor tablet (Roche). Cells are disrupted by sonication, and debris is removed by centrifugation for 40 minutes at 35000 g.
Initial purification is performed using three nickel-Sepharose Hi-Trap HP 1 mL columns (Amersham) connected in series. After application of the pellet supernatants, the bound material is washed with 20 mM Tris (pH 8.0), 20 mM imidazole, 10% glycerol (v/v), and 1 mM TCEP before elution with an imidazole gradient up to 200 mM.
Fractions containing ITPKb are identified by SDS-PAGE, and the pure fractions are concentrated and buffer exchanged using centriprep 20 15 kDa columns into 20 mM Tris (pH 8), 200 mM KCl, 5 mM MgCl2, 0.5 mM DTT, 10% glycerol, 1 μM IP3, and 20 μM ATP to a final protein concentration of 7 mg/mL.
ITPKb activity is determined using the Kinase-Glo (Promega) ATP depletion assay. The assay reaction buffer consists of 50 mM Tris (pH 8.0), 100 mM NaCl, 1 mM DTT, 10% glycerol, 5 mM MgCl2, 1 μM ATP, and 10 μM IP3 (Alexis Biochemicals). 50 nl of inhibitor is then added to each 40 μL reaction followed by a 10 μL addition of purified ITPKb (final concentration of 60 nM). The reaction mixture is incubated for 60 minutes at room temperature and stopped by the addition of an equal volume of kinase-glo reagent (Promega). Luminescence is measured using a Molecular Devices Acquest instrument.

[1] = Table 2, inhibiting the phosphorylation of IP3 to IP4, read-out: IC50
[2] = Table 1, inhibiting the phosphorylation of IP3 to IP4, read-out: IC50

SMILES	IC50 [1] [µM]	IC50 [2] [µM]	also measured
C[C@@H]1CN(Cc2c[nH]nc2C(=O)Nc2ccncc2)CCN1c1ccc(C(F)(F)F)cn1 [Example 18, (R)-4-((3-methyl-4-(5-(trifluoromethyl)pyridin-2-yl)piperazin-1-yl)methyl)-N-(pyridin-4-yl)-1H-pyrazole-3-carboxamide]	0.449	–	–
C[C@@H]1CN(Cc2c[nH]nc2-c2ccc3cnccc3c2)CCN1c1ccc(C(F)(F)F)cn1 [Example 20]	–	0.011	–
C[C@@H]1CN(Cc2c[nH]nc2C=C2NC(=O)NC2=O)CCN1c1ccc(C(F)(F)F)cn1 [Example 17, R-5-((4-((3-methyl-4-(5-(trifluoromethyl)pyridin-2-yl)piperazin-1-yl)methyl)-1H-pyrazol-3-yl)methylene)imidazolidine-2,4-dione]	0.531	–	–
C[C@@H]1CN(Cc2c[nH]nc2/C=C2\NC(=S)NC2=O)CCN1c1ccc(C(F)(F)F)cn1 [Example 46]	–	> 10	–
C[C@@H]1CN(Cc2c[nH]nc2-c2c[nH]c(C(N)=O)c2)CCN1c1ccc(C(F)(F)F)cn1 [Example 7, (R)-4-(4-((3-methyl-4-(5-(trifluoromethyl)pyridin-2-yl)piperazin-1-yl)methyl)-1H-pyrazol-3-yl)-1H-pyrrole-2-carboxamide]	–	–	IC50 (read-out: IC50 in inhibiting the phosphorylation of IP3 to IP4): 0.002 µM
C[C@@H]1CN(Cc2c[nH]nc2-c2nc(-c3ccccc3)c[nH]2)CCN1c1ccc(C(F)(F)F)cn1 [Example 15, (R)-2-methyl-4-((3-(4-phenyl-1H-imidazol-2-yl)-1H-pyrazol-4-yl)methyl)-1-(5-(trifluoromethyl)pyridin-2-yl)piperazine]	1.23	–	–
Cc1cc(NC(=O)c2n[nH]cc2CN2CCN(c3ccc(C(F)(F)F)cn3)[C@H](C)C2)n(CCN(C)C)n1 [Example 32]	–	6.19	–

Further lines, with some results ahead:

IC50 [1] [µM]	IC50 [2] [µM]	SMILES	also measured
–	0.014	CC(O)CNC(=O)c1c[nH]c(-c2n[nH]cc2CN2CCN(c3ccc(C(F)(F)F)cn3)[C@H](C)C2)c1 (stereo partly shown) [Example 43]	–
0.475	–	C[C@@H]1CN(Cc2c[nH]nc2-c2nc(C(=N)N)c[nH]2)CCN1c1ccc(C(F)(F)F)cn1 [Example 12, (R)-2-(4-((3-methyl-4-(5-(trifluoromethyl)pyridin-2-yl)piperazin-1-yl)methyl)-1H-pyrazol-3-yl)-1H-imidazole-4-carboximidamide]	–
–	0.066	CC(=O)N1CC=C(c2n[nH]cc2CN2CCN(c3ccc(C(F)(F)F)cn3)[C@H](C)C2)CC1 [Example 47]	–
1.48	–	C[C@@H]1CN(Cc2c[nH]nc2-c2nc(C(F)(F)F)c[nH]2)CCN1c1ccc(C(F)(F)F)cn1 [Example 11, (R)-2-methyl-4-((3-(4-(trifluoromethyl)-1H-imidazol-2-yl)-1H-pyrazol-4-yl)methyl)-1-(5-(trifluoromethyl)pyridin-2-yl)piperazine]	–
0.024	–	C[C@@H]1CN(Cc2c[nH]nc2-c2nc(C(N)=O)c[nH]2)CCN1c1ccc(C(F)(F)F)cn1 [Example 14, (R)-2-(4-((3-methyl-4-(5-(trifluoromethyl)pyridin-2-yl)piperazin-1-yl)methyl)-1H-pyrazol-3-yl)-1H-imidazole-4-carboxamide]	–
–	0.182	C[C@@H]1CN(Cc2c[nH]nc2-c2c[nH]c3ncccc23)CCN1c1ccc(C(F)(F)F)cn1 [Example 44]	–
